From article PMC10095708, “Discovery of Novel STING Inhibitors Based on the Structure of the Mouse STING Agonist DMXAA” (Molecules, 2023) come the findings set out here.

Series [1] deals with STING-triggered IRF pathway. The series can be described thus: Inhibition of STING dual pathways, THP1-KI-hSTING-R232 cells, IRF (Lucia luciferase). The following applies: THP1-hSTING-R232 cells stimulated with 2′,3′-cGAMP, 24 h; 11 20 µM, 27 33 µM, H151 2 µM.
Source text: (§3) After the THP-1 reporter cell line stimulation with 2′,3′-cGAMP, we added STING inhibitors with appropriate concentrations for inhibiting the inductions of I IFN and proinflammatory cytokine. […] In addition, to exclude the effect of cytotoxicity of the compounds on the inhibitory activity, we used the CellTiter-Glo kit to assay cellular activity.
For series [2], the target named is T1, mSTING (Mus musculus, UniProt Q3TBT3).
T1 sequence (Q3TBT3 1-378): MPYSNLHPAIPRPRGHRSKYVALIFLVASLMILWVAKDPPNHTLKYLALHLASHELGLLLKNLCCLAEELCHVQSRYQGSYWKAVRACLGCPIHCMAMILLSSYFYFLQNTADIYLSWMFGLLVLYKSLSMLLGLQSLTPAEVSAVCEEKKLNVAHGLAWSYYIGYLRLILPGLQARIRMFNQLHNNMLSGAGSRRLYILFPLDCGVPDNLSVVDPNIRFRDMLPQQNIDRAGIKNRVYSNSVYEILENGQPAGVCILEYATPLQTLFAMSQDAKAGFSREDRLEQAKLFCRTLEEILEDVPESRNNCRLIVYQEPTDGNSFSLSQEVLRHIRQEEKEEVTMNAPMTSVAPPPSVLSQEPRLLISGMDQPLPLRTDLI
Put plainly: HTRF STING competition binding (cGAMP displacement) assay, mSTING. The arrangement: purchased Cisbio. The following applies: for IC50: HTRF displacement assay, means from at least three repeated experiments; for binding to mSTING in displacement assay, in words: concentrations up to 100 μM. Here is the method:
(§1) Mouse STING binding kits, human STING WT binding kits, human AQ STING binding kits, human H232 STING binding kits were purchased from Cisbio. […] QUANTI-Blue solution, QUANTI-Luc, 2′,3′-cGAMP were purchased from Invivogen. […] CellTiter-Glo luminescent cell viability assay kit was obtained from Promega.
(§2) According to the instructions of STING binding kits, the following solutions were successively added to each well in the 384-well plate: 5 μL of the detection compounds or 2′,3′-cGAMP (positive control) with different concentrations or diluent (negative control); 5 μL of human STING 6His-tagged protein (negative control well was added to detection buffer); 10 μL of STING ligand d2 and Anti 6His-Tb3^+ premixed working solution.
On the technique in general: TR-FRET usually uses a lanthanide donor and a delayed reading to cut background.

The subject of series [3] is STING-triggered NF-κB pathway. The series can be described thus: Inhibition of STING dual pathways, THP1-KI-hSTING-R232 cells, NF-κB (SEAP). The following applies: THP1-hSTING-R232 cells stimulated with 2′,3′-cGAMP, 24 h; 11 20 µM, 27 33 µM, H151 2 µM.
Source text: as §3
A further series addresses hSTING-R232 (Homo sapiens, UniProt Q86WV6, H232R). Put plainly: Cellular assay for STING inhibitory activity, 293T hSTING-R232 cells stimulated with 2′,3′-cGAMP (SEAP). To be noted: for inhibitory potency in human STING reporter cells, initial screen: compound at 100 μM.
For a further series, the target named is T2, hSTING-AQ (Homo sapiens, UniProt Q86WV6, G230A/R293Q).
T2 construct: purchased Cisbio
Put plainly: HTRF STING competition binding (cGAMP displacement) assay, hSTING-AQ. The following applies: for IC50: HTRF displacement assay, means from at least three repeated experiments; for binding to hSTING-AQ in displacement assay, in words: concentrations up to 100 μM. How it is done:
as §1, §2

The next series addresses T3, hSTING-WT (Homo sapiens, UniProt Q86WV6, H232R).
T3 construct: purchased Cisbio
The series can be described thus: HTRF STING competition binding (cGAMP displacement) assay, hSTING-WT. To be noted: for IC50: HTRF displacement assay, means from at least three repeated experiments; for binding to hSTING-WT in displacement assay, in words: concentrations up to 100 μM. Here is the method:
as §1, §2

The target in a further series is T4, hSTING-H232 (Homo sapiens, UniProt Q86WV6).
T4 construct: purchased Cisbio
The series can be described thus: HTRF STING competition binding (cGAMP displacement) assay, hSTING-H232. To be noted: for IC50: HTRF displacement assay, means from at least three repeated experiments; for binding to hSTING-H232 in displacement assay, in words: concentrations up to 100 μM. Here is the method:
as §1, §2

Series [4] concerns the target T1, mSTING. The series can be described thus: Cellular assay for STING inhibitory activity, 293T mSTING cells stimulated with 2′,3′-cGAMP (SEAP). The following applies: for inhibitory potency in murine STING reporter cells, initial screen: compound at 100 μM.
Another series concerns 293T cells. Put plainly: CellTiter-Glo luminescent cell viability assay, 293T cells. To be noted: 48 h. For orientation: In ATP-based viability assays light output follows the ATP content of the culture.
The next series deals with THP-1 cells. The series can be described thus: CellTiter-Glo luminescent cell viability assay, THP-1 cells. To be noted: 48 h.

Molecules are shown by their SMILES. Several values for one entry are separate records, joined by “and”; a condition that tells them apart may be missing. Equal values may be shown once.

T2 sequence (Q86WV6 whole entry G230A/R293Q): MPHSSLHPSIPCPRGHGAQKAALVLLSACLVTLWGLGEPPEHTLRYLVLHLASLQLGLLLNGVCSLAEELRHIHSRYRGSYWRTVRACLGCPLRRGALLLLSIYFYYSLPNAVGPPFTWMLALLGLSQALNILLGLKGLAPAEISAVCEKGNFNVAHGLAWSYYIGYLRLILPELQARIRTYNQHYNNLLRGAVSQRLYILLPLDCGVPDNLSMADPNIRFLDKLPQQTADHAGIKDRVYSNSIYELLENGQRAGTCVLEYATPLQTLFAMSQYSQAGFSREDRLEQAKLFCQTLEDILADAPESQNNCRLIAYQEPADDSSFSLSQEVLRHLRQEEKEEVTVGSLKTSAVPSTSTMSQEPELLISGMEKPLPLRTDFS
T4 sequence (Q86WV6 135-379 limits assumed): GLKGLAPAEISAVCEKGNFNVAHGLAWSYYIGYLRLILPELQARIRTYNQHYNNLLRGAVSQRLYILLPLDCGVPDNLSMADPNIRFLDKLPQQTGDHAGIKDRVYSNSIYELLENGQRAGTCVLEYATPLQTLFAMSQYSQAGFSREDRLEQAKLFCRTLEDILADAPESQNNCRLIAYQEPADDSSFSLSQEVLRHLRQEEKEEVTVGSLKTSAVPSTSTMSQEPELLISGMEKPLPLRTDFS
T3 sequence (Q86WV6 whole entry H232R): as the sequence (Q86WV6 whole entry G230A/R293Q) above, with A230G, H232R, Q293R counted along it
Chain of hSTING-R232 (Q86WV6 whole entry H232R): as the sequence (Q86WV6 whole entry G230A/R293Q) above, with A230G, H232R, Q293R counted along it

One may read the IC50 as the midpoint of a concentration-inhibition curve. Higher therefore signals weaker potency. With `COc1cc2c(=O)c3c(F)ccc4c3n(c2c(C)c1C)C(=O)C4` [Compound 27, 5-fluoro-8-methoxy-9,10-dimethyl-6H-pyrrolo[3,2,1-de]acridine-1,6(2H)-dione], the “inhibition of STING-triggered IRF pathway activation” value in [1] is “significantly inhibited”. In addition, on mSTING [2], the half-maximal inhibitory concentration (IC50) was determined as 3.88 µM and the “binding to mSTING in displacement assay, in words” value (“binding to mSTING” below) was “single-digit micromolar activity”. For the same compound, in [3], the “inhibition of STING-triggered NF-κB pathway activation” value was “significantly inhibited”. For the same compound, on hSTING-R232, the IC50 stood at 38.8 µM and the “inhibitory potency in human STING reporter cells, initial screen” value is “excellent inhibition”. In addition, at hSTING-AQ, the IC50 is 5.82 µM and the “binding to hSTING-AQ in displacement assay, in words” value (shortened to “binding to hSTING-AQ”) was “single-digit micromolar activity”. Also, on hSTING-WT, the half-inhibitory concentration (IC50) is 7.67 µM and the “binding to hSTING-WT in displacement assay, in words” value (“binding to hSTING-WT” below) is on record as “single-digit micromolar activity”. Moreover, on hSTING-H232, the IC50 turned out to be 6.57 µM and the “binding to hSTING-H232 in displacement assay, in words” value (from here on “binding to hSTING-H232”) was “single-digit micromolar activity”. Moreover, at mSTING [4], the half-maximal inhibitory concentration (IC50) worked out at 30.8 µM and the “inhibitory potency in murine STING reporter cells, initial screen” value is recorded as “excellent inhibition”.
As for `COc1cc2c(=O)c3cc(Cl)cc(CC(=O)O)c3[nH]c2c(C)c1C` [Compound 38], the 50% inhibitory concentration (IC50) on mSTING [2], on hSTING-AQ, at hSTING-WT and at hSTING-H232 was above 100 µM in each case.
For the compound `CCc1ccc(NC(=O)Nc2c[nH]c3ccccc23)cc1` [Compound H151, reference compound], the “cytotoxicity, cell viability 293T cells” value in the series with 293T cells (at 10 μM) is listed as “significant cytotoxicity”. Moreover, in the series with THP-1 cells (at 10 μM), the “cytotoxicity, cell viability THP-1 cells” value is reported as “significant cytotoxicity”.
Take `COc1cc2c(=O)c3cc(F)cc4c3n(c2c(C)c1C)C(=O)C4` [Compound 28, 4-fluoro-8-methoxy-9,10-dimethyl-6H-pyrrolo[3,2,1-de]acridine-1,6(2H)-dione]: the half-maximal inhibitory concentration (IC50) on mSTING [2] amounted to 61 µM; at hSTING-AQ it was 55.2 µM; on hSTING-WT, 88.1 µM; on hSTING-H232 it was 62.4 µM.
For the compound `COc1cc2c(=O)c3c(Cl)ccc(CC(=O)O)c3[nH]c2c(C)c1C` [Compound 36], the IC50 at mSTING [2], on hSTING-AQ, on hSTING-WT and on hSTING-H232 was above 100 µM each time.
For the compound `COc1cc2c(=O)c3cc(Cl)cc4c3n(c2c(C)c1C)C(=O)C4` [Compound 26, 4-chloro-8-methoxy-9,10-dimethyl-6H-pyrrolo[3,2,1-de]acridine-1,6(2H)-dione], the IC50 at mSTING [2] was 51.5 µM; on hSTING-AQ, 65.1 µM; at hSTING-WT, above 100 µM; at hSTING-H232, 79.1 µM.
In the case of `COc1cc2c(=O)c3ccccc3[nH]c2c(C)c1C` [Compound 9, 2-methoxy-3,4-dimethylacridin-9(10H)-one], on mSTING [2], the half-maximal inhibitory concentration (IC50) was above 100 µM and the “binding to mSTING” value is recorded as “cannot bind to STING”. Also, on hSTING-AQ, the half-maximal inhibitory concentration (IC50) was above 100 µM and the “binding to hSTING-AQ” value is on record as “cannot bind to STING”. Besides, at hSTING-WT, the IC50 was above 100 µM and the “binding to hSTING-WT” value was “cannot bind to STING”. On hSTING-H232, the 50% inhibitory concentration (IC50) is above 100 µM and the “binding to hSTING-H232” value was “cannot bind to STING”.
Take `COc1cc(C(=O)O)c2[nH]c3c(C)c(C)c(OC)cc3c(=O)c2c1` [Compound 34, 2,7-dimethoxy-5,6-dimethyl-9-oxo-9,10-dihydroacridine-4-carboxylic acid]: on mSTING [2], the IC50 is above 100 µM and the “binding to mSTING” value was “inactive”. On hSTING-AQ, the half-inhibitory concentration (IC50) is above 100 µM and the “binding to hSTING-AQ” value is “inactive”. Further, at hSTING-WT, the IC50 is above 100 µM and the “binding to hSTING-WT” value is “inactive”. Further, on hSTING-H232, the concentration for half-maximal inhibition (IC50) was above 100 µM and the “binding to hSTING-H232” value is “inactive”.
Regarding `COc1cc2c(=O)c3c(Cl)ccc4c3n(c2c(C)c1C)C(=O)C4` [Compound 25, 5-chloro-8-methoxy-9,10-dimethyl-6H-pyrrolo [3,2,1-de]acridine-1,6(2H)-dione], the IC50 was 32.4 µM at mSTING [2], 48 µM at hSTING-AQ, 78.1 µM on hSTING-WT and 37.7 µM at hSTING-H232.
In the same order, the values of `COc1cc2c3c(c1)c(=O)c1cc(OC)c(C)c(C)c1n3C(=O)C2` [Compound 29, 4,8-dimethoxy-9,10-dimethyl-6H-pyrrolo[3,2,1-de]acridine-1,6(2H)-dione] are above 100 µM, 70.5 µM, above 100 µM and 82.8 µM.
Regarding `COc1cc2c(=O)c3ccccc3n(CC(=O)O)c2c(C)c1C` [Compound 11, 2-(2-methoxy-3,4-dimethyl-9-oxoacridin-10(9H)-yl)acetic acid], the “inhibition of STING-triggered IRF pathway activation” value in [1] is “significantly inhibited”. The concentration for half-maximal inhibition (IC50) is < 20 µM and 19 µM on mSTING [2]; 19.9 µM against hSTING-R232; < 20 µM and 14.3 µM at hSTING-AQ; < 20 µM and 5.81 µM at hSTING-WT; < 20 µM and 12.1 µM at hSTING-H232; 15.5 µM against mSTING [4]. In addition, the “inhibition of STING-triggered NF-κB pathway activation” value in [3] is “significantly inhibited”. The “inhibitory potency in human STING reporter cells, initial screen” value against hSTING-R232 is on record as “excellent inhibition”. Also, the “cytotoxicity, cell viability 293T cells” value in the series with 293T cells (5 to 100 μM) is listed as “no evidence of cytotoxicity”. Besides, the “inhibitory potency in murine STING reporter cells, initial screen” value against mSTING [4] was “excellent inhibition”. The “cytotoxicity, cell viability THP-1 cells” value in the series on THP-1 cells (5 to 100 μM) was “no evidence of cytotoxicity”.
On to `COc1cc2c(=O)c3cccc(C(=O)O)c3[nH]c2c(C)c1C` [Compound 33, 7-methoxy-5,6-dimethyl-9-oxo-9,10-dihydroacridine-4-carboxylic acid], for which, on mSTING [2], the IC50 is above 100 µM and the “binding to mSTING” value was “inactive”. Further, at hSTING-AQ, the half-maximal inhibitory concentration (IC50) is above 100 µM and the “binding to hSTING-AQ” value was “inactive”. For the same compound, at hSTING-WT, the IC50 was above 100 µM and the “binding to hSTING-WT” value was “inactive”. At hSTING-H232, the IC50 was above 100 µM and the “binding to hSTING-H232” value was “inactive”.
With `COc1cc2c(=O)c3c(F)ccc(CC(=O)O)c3[nH]c2c(C)c1C` [Compound 35], the IC50 on mSTING [2], at hSTING-AQ, at hSTING-WT and at hSTING-H232 was above 100 µM throughout.
For the compound `CCOC(=O)Cn1c2ccccc2c(=O)c2cc(OC)c(C)c(C)c21` [Compound 10, Ethyl 2-(2-methoxy-3,4-dimethyl-9-oxoacridin-10 (9H)-yl)acetate], at mSTING [2], the 50% inhibitory concentration (IC50) was above 100 µM and the “binding to mSTING” value is on record as “cannot bind to STING”. Also, on hSTING-AQ, the IC50 was above 100 µM and the “binding to hSTING-AQ” value is given as “cannot bind to STING”. At hSTING-WT, the half-maximal inhibitory concentration (IC50) was above 100 µM and the “binding to hSTING-WT” value was “cannot bind to STING”. Moreover, at hSTING-H232, the IC50 was above 100 µM and the “binding to hSTING-H232” value is given as “cannot bind to STING”.
Consider `COc1cc2c(=O)c3cc(F)cc(CC(=O)O)c3[nH]c2c(C)c1C` [Compound 37], for which the IC50 on mSTING [2], on hSTING-AQ, on hSTING-WT and at hSTING-H232 was above 100 µM in each case.
